# Values quoted from earlier work in US20100021879A1, “COMPOSITIONS AND METHODS FOR PRESERVING RED BLOOD CELLS” (THE REGENTS OF THE UNIVERSITY OF MICHIGAN, priority 2007, published 2010).
# Experiments:
# erythrocyte = details: prior to hemolysis
SMILES,red blood cell deformability (red blood cells),K leak (erythrocyte),erythrocyte deformability evidenced by ektacytometry (erythrocyte)
CC[N+](CC)(CC)CC [TEA],increased deformability,–,–
OCl [hypochlorous acid],–,increase in K leak,changes in erythrocyte deformability
